Test results from patent publication US20100255990A1, “METHOD, COMPOSITION AND KIT FOR PROMOTIONG PLANT GROWTH AND IMPROVING PLANT PRESERVATION” (Doosan Corporation, priority 2005, published 2010).

Experiments:
[1] = system: protoplast of corn root; experiment: Reactive oxygen species (ROS) by DCF-DA flow cytometry; format: cell-based, Zea mays L; conditions: incubated 5 minutes
Method: The corns (Zea mays L) were used according to the following procedures: seeds of Golden cross Bantam were sufficiently washed in the flowing water and immersed in the distilled water for 24 hours. Then, the seeds were arranged in a line on the cultivation dish where the paper wetted with the distilled water was put on the cultivation dish and the ventral side of the seeds was forced to touch with the dish bottom. The seeds were covered with the wetted paper by two folds. […] The individuals having the root length of 1.5-2 cm were selected and used in this experiment. The protoplast of the corn root etiolated was modified according to the following method (Sheen J, Metabolic repression of transcription in higher plants, Plant Cell, 1990 October: 2(10):1027-38). In other words, the protoplast was separated from the two-day etiolated young corn plant. […] The compound was converted into […] by the esterase in the cell, which was in turn oxidized by the reactive oxygen species such as H2O2 and thus changed into 2′, 7′-dichlorofluorescine (DCF) having the highest fluorescence. […]

[2] = system: crimson; experiment: Yield of crimson grapes, single application; format: in vivo, Vitis Vinifera sp.; conditions: one treatment, LPE 50 ppm, potassium silicate 100 ppm, 200 GPA, FIG. 2
Method: (§1) The grape was selected as a test plant. Crimson and red globe (scientific name: Vitis Vinifera sp.) were used as the grape.
The each treatment was carried out for an area of 5 acres. All treatments were carried out with a typical orchard air blast sprayer.
(§2) All harvests after the each treatment were carried out by the workers belonging to the farm according to the ordinary harvesting method, so that the grapes were harvested in accordance with a commercial standard. The number and grade of the box harvested from the respective treatment row were recorded for each harvest day, with regard to the each treatment.
For the crimson which is cultivated in California, the above 6 treatments were carried out. The treatment was carried out only one time.

[3] = system: crimson; experiment: Yield of crimson grapes, each treatment carried out two times consecutively; format: in vivo, Vitis Vinifera sp.; conditions: two treatments 40 days apart, LPE 50 ppm, potassium silicate 100 ppm, 200 GPA, Ethrel 400 ppm, 100 GPA, FIG. 1
Method: as §1
(§3) The control group 2 is the case where they are treated with Ethrel, which is widely sold and used as a plant growth regulator, in an amount of 400 ppm, 100 GPA.
(§4) The control group 3 is such that it is treated with the solution of LPE 10% in an amount of 50 ppm, 200 GPA.
(§5) The solutions were injected in a spray manner, except the control groups 1 and 5. The each treatment was carried out for an area of 5 acres. All treatments were carried out with a typical orchard air blast sprayer.
as §2
For the crimson which is cultivated in California, the above 6 treatments were successively carried out two times.

[4] = system: Muscat Bailey A (late-season cv.) grapes; experiment: Coloring development of grape fruit; format: in vivo; conditions: two weeks after treatment; LPE 50 ppm, sodium silicate 100 ppm, 200 GPA; FIGS. 7a to 7c
Excerpt: Grapes used in the experiment were Muscat Bailey A (late-season cv.). […] [table]

[5] = system: red globe; experiment: Yield of red globe grapes, each treatment carried out two times consecutively; format: in vivo, Vitis Vinifera sp.; conditions: two treatments 40 days apart, LPE 50 ppm, potassium silicate 100 ppm, 200 GPA, FIG. 3
Method: as §1, §3, §4, §5, §2
For the red globe which is cultivated in California, the above 6 treatments were successively carried out two times.

[6] = system: Muscat Bailey A (late-season cv.) grapes; experiment: Preservation stability of the grape fruit; format: in vivo; parameters: unit not given here; conditions: preserved at room temperature for 14 days
Excerpt: Grapes used in the experiment were Muscat Bailey A (late-season cv.).
The grapes treated in the Example 3 were harvested, and preserved at a room temperature for 14 days. Then, calculation has been done for a ratio of complete grape fruits that were not decayed or no bruise.

[7] = system: Muscat Bailey A (late-season cv.) grapes; experiment: Color of grape leaves; format: in vivo; conditions: two weeks after treatment; LPE 50 ppm, sodium silicate 100 ppm, 200 GPA; FIGS. 8a to 8c
Method: Grapes used in the experiment were Muscat Bailey A (late-season cv.). […] [table] Meanwhile, an observation after two weeks was also carried out for colors of grape leaves.

[8] = system: mung beans; experiment: Adventitious root growth of mung beans; format: in vivo; conditions: two weeks after treatment; 50 ppm each; FIGS. 9 and 10

lysophosphatidylethanolamine [LPE] was tested, and the “increase amount of ROS” value ([1]; LPE 20 ppm (combination: + sodium silicate 40 ppm)) was 200-300%, the “increase amount of ROS” value ([1]; LPE 50 ppm (combination: + sodium silicate 100 ppm)) was 200-300% and the yield [2] was 96.3. For the same substance, the “yield of the grapes (ranking of groups)” value [3] was “smaller than those of the control groups 1 and 5 which were not treated”, the colors of grapes [4] was “excellent in the order of the experimental group 4, the control group 11, and the control group 10” and the “increase of yield as compared to the control groups 1 and 5, which were not treated” value [5] was “about 22 boxes”. The “ratio of complete grape fruits that were not decayed or no bruise” value ([6]; Average of 6 repeats) was 6.9, the “ratio of complete grape fruits that were not decayed or no bruise” value ([6]; Repeat 1) was 14.2 and the “ratio of complete grape fruits that were not decayed or no bruise” value ([6]; Repeat 2) was 15.6. For the same substance, the “ratio of complete grape fruits that were not decayed or no bruise” value ([6]; Repeat 3) was 4.0, the “ratio of complete grape fruits that were not decayed or no bruise” value ([6]; Repeat 4) was 0 and the “ratio of complete grape fruits that were not decayed or no bruise” value ([6]; Repeat 5) was 3.7. The “ratio of complete grape fruits that were not decayed or no bruise” value ([6]; Repeat 6) was 3.7, the “colors of grape leaves” value [7] was “many leaves become discolored to yellow” and the “length of the adventitious roots” value [8] was “the length thereof is short”. For the same substance, the “number of the adventitious roots” value [8] was “large number”.
